From patent publication US10597388B2, “Pyridazinone herbicides” (FMC CORPORATION, priority 2014, dated 2020)

Tests used:
Test in all cases: Test D controlled growth environment herbicide test, pre- and postemergence
Format in all cases: in vivo
[1] = system: field violet (Viola arvensis)
Procedure, shortened: (§1)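 Pre-emergence: seeds sown in silt loam soil were sprayed with compound in a non-phytotoxic solvent mix containing surfactant. Post-emergence: plants at 2 to 18 cm (1- to 4-leaf stage) in peat moss/vermiculite medium got the same formulation. Visual 0–100 rating versus controls after 14 to 21 d.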

[2] = system: bromegrass, downy (downy bromegrass, Bromus tectorum)
Procedure, shortened: as §1

[3] = system: canarygrass (Phalaris minor)
Procedure, shortened: as §1

[4] = system: mustard, wild (wild mustard, Sinapis arvensis)
Procedure, shortened: as §1

[5] = system: wheat, spring (spring wheat, Triticum aestivum)
Procedure, shortened: as §1

[6] = system: buckwheat, wild (wild buckwheat, Polygonum convolvulus)
Procedure, shortened: as §1

[7] = system: oilseed rape (Brassica napus)
Procedure, shortened: as §1

[8] = system: bluegrass (annual bluegrass, Poa annua)
Procedure, shortened: as §1

[9] = system: oat, wild (wild oat, Avena fatua)
Procedure, shortened: as §1

[10] = system: chamomile (scentless chamomile, Matricaria inodora)
Procedure, shortened: as §1

[11] = system: radish, wild (wild radish, Raphanus raphanistrum)
Procedure, shortened: as §1

[12] = system: field poppy (Papaver rhoeas)
Procedure, shortened: as §1

[13] = Postemergence, 31 g ai/ha, scale 0 to 100 (0 no effect, 100 complete control)
[14] = Postemergence, 125 g ai/ha, visual rating on scale 0 (no effect) to 100 (complete control), 14 to 21 d
[15] = Postemergence, 250 g ai/ha, scale 0 to 100 (0 no effect, 100 complete control)
[16] = Preemergence, 62 g ai/ha, scale 0 to 100 (0 no effect, 100 complete control)
[17] = Preemergence, 125 g ai/ha, scale 0 to 100 (0 no effect, 100 complete control)
[18] = Preemergence, 250 g ai/ha, scale 0 to 100 (0 no effect, 100 complete control)
[19] = postemergence, 62 g ai/ha, scale 0 to 100, 0 no effect, 100 complete control

**Q.** How did the “Field Violet plant response rating” value [1, 13] turn out when `Cc1ccc2sc(C)c(-c3c(O)c(C)nn(C)c3=O)c2c1` [Compound 1, 4-(2,5-dimethylbenzo[b]thien-3-yl)-5-hydroxy-2,6-dimethyl-3(2H)-pyridazinone] was run?
**A.** Its value is 85.

**Q.** What about the “Plant response rating, Field Violet” value [1, 14] of the same molecule?
**A.** The value was 90.

**Q.** What about the “Plant response rating, Field Violet” value [1, 15] of the same molecule?
**A.** Its value is 95.

**Q.** What about the “Plant response rating (scale of 0 to 100), Field Violet” value ([1]; Preemergence, 31 g ai/ha) of the same molecule?
**A.** Its value is 95.

**Q.** What about the “Plant response rating, Field Violet” value [1, 16] of the same molecule?
**A.** Its value is 100.

**Q.** What about the “Plant response rating, Field Violet” value [1, 17] of the same molecule?
**A.** Its value is 100.

**Q.** And the “Plant response rating, Field Violet” value [1, 18]?
**A.** The value was 100.

**Q.** And the “Plant response rating, Field Violet” value [1, 19]?
**A.** The value was 75.

**Q.** And the “Bromegrass, Downy plant response rating” value [2, 13]?
**A.** Its value is 0.

**Q.** And the “Plant response rating, Bromegrass, Downy” value [2, 14]?
**A.** Its value is 10.

**Q.** And the “Plant response rating, Bromegrass, Downy” value [2, 15]?
**A.** The value was 20.

**Q.** And the “Plant response rating (scale of 0 to 100), Bromegrass, Downy” value ([2]; Preemergence, 31 g ai/ha)?
**A.** Its value is 20.

**Q.** And the “Plant response rating, Bromegrass, Downy” value [2, 16]?
**A.** Its value is 25.

**Q.** And the “Plant response rating, Bromegrass, Downy” value [2, 17]?
**A.** Its value is 70.

**Q.** What about the “Plant response rating, Bromegrass, Downy” value [2, 18] of the same molecule?
**A.** Its value is 70.

**Q.** And the “Plant response rating, Bromegrass, Downy” value [2, 19]?
**A.** The value was 10.

**Q.** And the “Canarygrass plant response rating” value [3, 13]?
**A.** Its value is 20.

**Q.** What about the “Plant response rating, Canarygrass” value [3, 14] of the same molecule?
**A.** The value was 50.

**Q.** What about the “Plant response rating, Canarygrass” value [3, 15] of the same molecule?
**A.** The value was 70.

**Q.** And the “Plant response rating (scale of 0 to 100), Canarygrass” value ([3]; Preemergence, 31 g ai/ha)?
**A.** The value was 40.

**Q.** And the “Plant response rating, Canarygrass” value [3, 16]?
**A.** Its value is 60.

**Q.** And the “Plant response rating, Canarygrass” value [3, 17]?
**A.** Its value is 85.

**Q.** And the “Plant response rating, Canarygrass” value [3, 18]?
**A.** The value was 90.

**Q.** And the “Plant response rating, Canarygrass” value [3, 19]?
**A.** Its value is 35.

**Q.** What about the “Mustard, Wild plant response rating” value [4, 13] of the same molecule?
**A.** Its value is 25.

**Q.** What about the “Plant response rating, Mustard, Wild” value [4, 14] of the same molecule?
**A.** The value was 40.

**Q.** And the “Plant response rating, Mustard, Wild” value [4, 15]?
**A.** Its value is 65.

**Q.** And the “Plant response rating (scale of 0 to 100), Mustard, Wild” value ([4]; Preemergence, 31 g ai/ha)?
**A.** Its value is 0.

**Q.** And the “Plant response rating, Mustard, Wild” value [4, 16]?
**A.** Its value is 0.

**Q.** What about the “Plant response rating, Mustard, Wild” value [4, 17] of the same molecule?
**A.** Its value is 10.

**Q.** What about the “Plant response rating, Mustard, Wild” value [4, 18] of the same molecule?
**A.** The value was 25.

**Q.** What about the “Plant response rating, Mustard, Wild” value [4, 19] of the same molecule?
**A.** The value was 30.

**Q.** What about the “Wheat, Spring plant response rating” value [5, 13] of the same molecule?
**A.** The value was 0.

**Q.** And the “Plant response rating, Wheat, Spring” value [5, 14]?
**A.** Its value is 10.

**Q.** And the “Plant response rating, Wheat, Spring” value [5, 15]?
**A.** Its value is 15.

**Q.** What about the “Plant response rating (scale of 0 to 100), Wheat, Spring” value ([5]; Preemergence, 31 g ai/ha) of the same molecule?
**A.** The value was 0.

**Q.** And the “Plant response rating, Wheat, Spring” value [5, 16]?
**A.** Its value is 0.

**Q.** What about the “Plant response rating, Wheat, Spring” value [5, 17] of the same molecule?
**A.** Its value is 0.

**Q.** What about the “Plant response rating, Wheat, Spring” value [5, 18] of the same molecule?
**A.** The value was 10.

**Q.** What about the “Plant response rating, Wheat, Spring” value [5, 19] of the same molecule?
**A.** Its value is 0.

**Q.** And the “Buckwheat, Wild plant response rating” value [6, 13]?
**A.** The value was 70.

**Q.** And the “Plant response rating, Buckwheat, Wild” value [6, 14]?
**A.** The value was 100.

**Q.** And the “Plant response rating, Buckwheat, Wild” value [6, 15]?
**A.** The value was 100.

**Q.** What about the “Plant response rating (scale of 0 to 100), Buckwheat, Wild” value ([6]; Preemergence, 31 g ai/ha) of the same molecule?
**A.** Its value is 5.

**Q.** What about the “Plant response rating, Buckwheat, Wild” value [6, 16] of the same molecule?
**A.** Its value is 10.

**Q.** And the “Plant response rating, Buckwheat, Wild” value [6, 17]?
**A.** The value was 65.

**Q.** What about the “Plant response rating, Buckwheat, Wild” value [6, 18] of the same molecule?
**A.** Its value is 100.

**Q.** What about the “Plant response rating, Buckwheat, Wild” value [6, 19] of the same molecule?
**A.** Its value is 75.

**Q.** And the “Oilseed Rape plant response rating” value [7, 13]?
**A.** The value was 0.

**Q.** What about the “Plant response rating, Oilseed Rape” value [7, 14] of the same molecule?
**A.** The value was 35.

**Q.** And the “Plant response rating, Oilseed Rape” value [7, 15]?
**A.** The value was 60.

**Q.** What about the “Plant response rating (scale of 0 to 100), Oilseed Rape” value ([7]; Preemergence, 31 g ai/ha) of the same molecule?
**A.** The value was 0.

**Q.** And the “Plant response rating, Oilseed Rape” value [7, 16]?
**A.** Its value is 0.

**Q.** What about the “Plant response rating, Oilseed Rape” value [7, 17] of the same molecule?
**A.** The value was 5.

**Q.** What about the “Plant response rating, Oilseed Rape” value [7, 18] of the same molecule?
**A.** The value was 20.

**Q.** And the “Plant response rating, Oilseed Rape” value [7, 19]?
**A.** The value was 15.

**Q.** And the “Bluegrass plant response rating” value [8, 13]?
**A.** The value was 0.

**Q.** What about the “Plant response rating, Bluegrass” value [8, 14] of the same molecule?
**A.** Its value is 5.

**Q.** What about the “Plant response rating, Bluegrass” value [8, 15] of the same molecule?
**A.** The value was 5.

**Q.** And the “Plant response rating (scale of 0 to 100), Bluegrass” value ([8]; Preemergence, 31 g ai/ha)?
**A.** Its value is 5.

**Q.** What about the “Plant response rating, Bluegrass” value [8, 16] of the same molecule?
**A.** Its value is 15.

**Q.** And the “Plant response rating, Bluegrass” value [8, 17]?
**A.** Its value is 35.

**Q.** What about the “Bluegrass plant response rating” value [8, 18] of the same molecule?
**A.** Its value is 50.

**Q.** What about the “Plant response rating, Bluegrass” value [8, 19] of the same molecule?
**A.** The value was 5.

**Q.** And the “Oat, Wild plant response rating” value [9, 13]?
**A.** Its value is 40.

**Q.** And the “Plant response rating, Oat, Wild” value [9, 14]?
**A.** Its value is 80.

**Q.** And the “Plant response rating, Oat, Wild” value [9, 15]?
**A.** Its value is 95.

**Q.** What about the “Plant response rating (scale of 0 to 100), Oat, Wild” value ([9]; Preemergence, 31 g ai/ha) of the same molecule?
**A.** The value was 75.

**Q.** And the “Plant response rating, Oat, Wild” value [9, 16]?
**A.** Its value is 70.

**Q.** What about the “Plant response rating, Oat, Wild” value [9, 17] of the same molecule?
**A.** The value was 95.

**Q.** And the “Plant response rating, Oat, Wild” value [9, 18]?
**A.** Its value is 100.

**Q.** What about the “Plant response rating, Oat, Wild” value [9, 19] of the same molecule?
**A.** Its value is 70.

**Q.** What about the “Chamomile plant response rating” value [10, 13] of the same molecule?
**A.** The value was 65.

**Q.** And the “Plant response rating, Chamomile” value [10, 14]?
**A.** The value was 85.

**Q.** What about the “Plant response rating, Chamomile” value [10, 15] of the same molecule?
**A.** Its value is 100.

**Q.** And the “Plant response rating (scale of 0 to 100), Chamomile” value ([10]; Preemergence, 31 g ai/ha)?
**A.** The value was 95.

**Q.** What about the “Plant response rating, Chamomile” value [10, 16] of the same molecule?
**A.** Its value is 95.

**Q.** And the “Plant response rating, Chamomile” value [10, 17]?
**A.** The value was 95.

**Q.** What about the “Plant response rating, Chamomile” value [10, 18] of the same molecule?
**A.** The value was 90.

**Q.** And the “Plant response rating, Chamomile” value [10, 19]?
**A.** Its value is 75.

**Q.** What about the “Radish, Wild plant response rating” value [11, 13] of the same molecule?
**A.** Its value is 10.

**Q.** And the “Plant response rating, Radish, Wild” value [11, 14]?
**A.** Its value is 30.

**Q.** What about the “Plant response rating, Radish, Wild” value [11, 15] of the same molecule?
**A.** Its value is 60.

**Q.** What about the “Plant response rating (scale of 0 to 100), Radish, Wild” value ([11]; Preemergence, 31 g ai/ha) of the same molecule?
**A.** The value was 0.

**Q.** What about the “Plant response rating, Radish, Wild” value [11, 16] of the same molecule?
**A.** Its value is 0.

**Q.** And the “Plant response rating, Radish, Wild” value [11, 17]?
**A.** Its value is 15.

**Q.** And the “Plant response rating, Radish, Wild” value [11, 18]?
**A.** The value was 100.

**Q.** And the “Plant response rating, Radish, Wild” value [11, 19]?
**A.** Its value is 20.

**Q.** What about the “Field Poppy plant response rating” value [12, 13] of the same molecule?
**A.** Its value is 95.

**Q.** What about the “Plant response rating, Field Poppy” value [12, 14] of the same molecule?
**A.** The value was 100.

**Q.** What about the “Plant response rating, Field Poppy” value [12, 15] of the same molecule?
**A.** Its value is 95.

**Q.** And the “Plant response rating (scale of 0 to 100), Field Poppy” value ([12]; Preemergence, 31 g ai/ha)?
**A.** The value was 95.

**Q.** What about the “Plant response rating, Field Poppy” value [12, 16] of the same molecule?
**A.** The value was 95.

**Q.** And the “Plant response rating, Field Poppy” value [12, 17]?
**A.** The value was 95.

**Q.** And the “Plant response rating, Field Poppy” value [12, 18]?
**A.** The value was 95.

**Q.** What about the “Plant response rating, Field Poppy” value [12, 19] of the same molecule?
**A.** Its value is 95.
